Key:
[1] = test system: del(5q) MDS; details: cited from earlier work
[2] = test system: non-del (5q) MDS; details: cited from earlier work
[3] = test system: HL60 cells; test: MTT assay, proliferation of HL60 cells; assay type: cell-based; details: 72 hours, versus lenalidomide, significant difference at 1 μM (FIG. 7A)
Procedure: (§1) FIG. 7A is a graph showing proliferation of HL60 cells 72 hours after treatment with 0.001 μM, 0.01 μM, 0.1 μM, 1.0 μM, 10 μM, or 100 μM LB-100 (grey) or 0.001 μM, 0.01 μM, 0.1 μM, 1.0 μM, 10 μM, or 100 μM lenalidomide (black), compared to control or vehicle. FIGS. 7B to 7C are graphs showing proliferation of Namalwa cells 72 hours after treatment with 0.001 μM, 0.01 μM, 0.1 μM, 1.0 μM, 10 μM, or 100 μM LB-100 (♦), 0.001 μM, 0.01 μM, 0.1 μM, 1.0 μM, 10 μM, or 100 μM lenalidomide (▪), or 0.001 μM, 0.01 μM, 0.1 μM, 1.0 μM, 10 μM, or 100 μM, cantharidin (▴), compared to control or vehicle.
(§2) HL60 cells and U937 cells were compared (FIGS. 8A and 8B).

[4] = test system: Non-del(5q) patient BM MNCs; test: Apoptosis in patient cells, non-del(5q); assay type: cell-based; details: FIG. 5
[5] = test system: del(5q) patient BM MNCs; test: Apoptosis in patient cells, del(5q); assay type: cell-based
Procedure: FIG. 6 is a bar graph showing percentage of primary BM MNCs from a Del(5q) patient undergoing apoptosis after treatment with 0.1 μM, 1.0 μM, or 10 μM lenalidomide (grey) or 0.1 μM, 1.0 μM, or 10 μM LB-100 (black), compared to a control.

[6] = test system: MDS that is resistant to lenalidomide; test: Additional studies of LB-100 efficacy in lenalidomide-resistant MDS; assay type: in vivo; details: LB-100 or LB-100 in combination with lenalidomide
Procedure: (§3) Additional studies, similar to the aforementioned Phase I design, are conducted to evaluate the efficacy of LB-100, alone or in combination with lenalidomide, in patients with del(5q) MDS or non-del(5q) MDS.

[7] = test system: del(5q) MDS; test: Additional studies of LB-100 efficacy in del(5q) MDS; assay type: in vivo
Procedure: as §3
An amount of LB-100 is administered to a subject afflicted with del(5q) MDS. […] An amount of LB-100 in combination with lenalidomide is administered to a subject afflicted with del(5q) MDS.

[8] = test system: Namalwa cells; test: MTT assay, proliferation of Namalwa cells; assay type: cell-based; details: 72 hours, versus control (FIGS. 7B and 7C)
Procedure: as §1, §2

[9] = test system: Namalwa cells; test: Cell cycle analysis of Namalwa cells treated with LB-100; assay type: cell-based
Procedure: FIG. 1 is a bar graph showing percent of Namalwa cells in G1 arrest 24 hours after treatment with 0.1 μM, 1.0 μM or 10 μM LB-100 dissolved in DMSO (grey) or MSG (black) compared to control and vehicle.
FIG. 2 is a bar graph showing percent of Namalwa cells in G1 arrest 24 hours after treatment with 0.1 μM, 1.0 μM or 10 μM LB-100 compared to control.
Namalwa cells were treated with LB-100 dissolved in DMSO or MSG.

[10] = test system: non-del(5q) MDS; test: Additional studies of LB-100 efficacy in non-del(5q) MDS; assay type: in vivo
Procedure: as §3
An amount of LB-100 is administered to a subject afflicted with non-del(5q) MDS. […] An amount of LB-100 in combination with lenalidomide is administered to a subject afflicted with non-del(5q) MDS.

[11] = test system: Namalwa cells; test: Apoptosis in cell lines (Namalwa), flow cytometry; assay type: cell-based; details: 10 μM, dissolved in MSG
Procedure: FIG. 3 is a bar graph showing percentage of Namalwa cells undergoing apoptosis after treatment with 0.1 μM, 1.0 μM or 10 μM LB-100 dissolved in DMSO (grey) or MSG (black) compared to control and vehicle.
FIGS. 4A to 4D are a series of flow cytometry plots showing percentage of Namalwa cells undergoing apoptosis after treatment with control (FIG. 4A), 0.1 μM (FIG. 4B), 1.0 μM (FIG. 4C), or 10 μM (FIG. 4D) LB-100.

[12] = target: protein phosphatase 2A (Homo sapiens, UniProt P67775); details: cited from earlier work
[13] = LB-100 in combination with lenalidomide

Chain of protein phosphatase 2A (P67775 whole entry): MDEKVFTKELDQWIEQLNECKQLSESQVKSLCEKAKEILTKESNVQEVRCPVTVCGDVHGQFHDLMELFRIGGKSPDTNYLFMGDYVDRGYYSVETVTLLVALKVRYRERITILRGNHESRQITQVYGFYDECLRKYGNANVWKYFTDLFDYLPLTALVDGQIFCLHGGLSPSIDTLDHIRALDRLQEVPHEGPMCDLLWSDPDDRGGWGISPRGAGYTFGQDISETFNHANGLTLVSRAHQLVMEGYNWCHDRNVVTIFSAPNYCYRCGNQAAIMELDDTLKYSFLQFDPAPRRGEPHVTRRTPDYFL

Nc1cccc2c1CN(C1CCC(=O)NC1=O)C2=O (stereo not drawn) [Lenalidomide, lenalidomide]
transfusion independence (TI), share of patients ([1]; lower risk MDS patients with del(5q)): 67% | median duration of response ([1]; patients with del5q MDS): 2.5 years | transfusion independence (TI), share of patients [2]: 26%

CN1CCN(C(=O)C2C(C(=O)O)[C@H]3CC[C@@H]2O3)CC1 (stereo partly drawn) [LB100]
Proliferation (in words) [3]: significant decreased proliferation in comparison to treatment with lenalidomide | Apoptosis (in words) [4]: did not lead to apoptosis | Apoptosis (in words) ([5]; 1 μM): mild increase in apoptosis | Cytotoxicity compared with lenalidomide (in words) ([5]; 10 μM): more cytotoxic than lenalidomide | Apoptosis (in words) ([5]; 0.1, 1.0, 10 μM (FIG. 6)): induced apoptosis in a dose dependent fashion | Efficacy (in words) [6]: effective to treat the MDS | Efficacy (in words) ([7]; LB-100 alone): effective to treat the del(5q) MDS | Efficacy (in words) [7, 13]: effective to treat the del(5q) MDS | Proliferation (in words) [8]: significant decrease in proliferation in comparison to control | G1 arrest, dose dependence (in words) ([9]; Table 2, FIG. 2): led to G1 arrest in a dose-dependent fashion | G1 arrest (in words) ([9]; dissolved in DMSO or MSG (Table 1, FIG. 1)): led to G1 arrest at 1 and 10 μM in MSG and at 10 μM in DMSO | Efficacy (in words) ([10]; LB-100 alone): effective to treat the non-del(5q) MDS | Efficacy (in words) [10, 13]: effective to treat the non-del(5q) MDS | Apoptosis (in words) [11]: led to apoptosis at 10 μM

C=C1[C@@H](O)[C@@H]2O[C@]3(CC[C@H](/C=C/[C@@H](C)[C@@H]4CC(C)=C[C@@]5(O[C@H](C[C@@](C)(O)C(=O)O)CC[C@H]5O)O4)O3)CC[C@H]2O[C@@H]1[C@@H](O)C[C@H](C)[C@H]1O[C@@]2(CCCCO2)CC[C@H]1C [Okadaic acid, 9,10-Deepithio-9,10-didehydroacanthifolicin]
Selectivity over PP2B, PP2C and other phosphatases (in words) [12]: highly selective over PP2B, PP2C and a range of other phosphatases
